According to patent US5939583A, “Substituted 4-biphenyl-4-hydroxybutyric acid derivatives as matrix metalloprotease inhibitors” (Bayer Corporation, priority 1997, dated 1999):

What was measured:
[1] = target: T1, Human recombinant gelatinase B (MMP-9) (Homo sapiens, UniProt P14780); format: biochemical; settings: P218 6 μM, pH 6.5, 25 min, 37° C.
T1 construct: made in house; host or cells: baculovirus protein expression system
Text: P218 Fluorogenic Substrate
(§1) MMP Microfluorometric Profiling Assay.

[2] = target: T2, Human Recombinant gelatinase A (MMP-2) (Homo sapiens, UniProt P08253); format: biochemical; settings: P218 6 μM, pH 6.5, 25 min, 37° C.
T2 sequence (P08253 110-660): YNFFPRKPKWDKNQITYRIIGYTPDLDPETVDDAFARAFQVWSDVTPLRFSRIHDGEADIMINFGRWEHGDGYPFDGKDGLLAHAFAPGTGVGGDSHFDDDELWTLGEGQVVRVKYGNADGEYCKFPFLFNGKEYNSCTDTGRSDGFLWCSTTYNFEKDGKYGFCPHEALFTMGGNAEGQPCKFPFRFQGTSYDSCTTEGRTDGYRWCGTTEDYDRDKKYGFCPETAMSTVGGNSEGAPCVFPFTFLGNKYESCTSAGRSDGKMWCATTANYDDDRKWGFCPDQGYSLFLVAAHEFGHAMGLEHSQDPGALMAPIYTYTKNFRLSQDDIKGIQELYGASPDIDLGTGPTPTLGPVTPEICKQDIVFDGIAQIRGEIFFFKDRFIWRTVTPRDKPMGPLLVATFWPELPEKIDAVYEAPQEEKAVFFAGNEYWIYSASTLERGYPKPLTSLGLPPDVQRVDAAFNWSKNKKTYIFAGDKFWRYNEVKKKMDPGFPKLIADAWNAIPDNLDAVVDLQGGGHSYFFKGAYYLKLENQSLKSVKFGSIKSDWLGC

[3] = target: T3, Recombinant Human CHO Stromelysin (MMP-3) (Homo sapiens, UniProt P08254); format: biochemical; settings: P218 6 μM, pH 6.5, 25 min, 37° C.
T3 construct: made in house; host or cells: CHO
Text: The reaction was stopped by addition of soybean trypsin inhibitor (SBTI; 5:1 w/w to trypsin concentration).
as §1

[4] = system: MMP-3; settings: WO 9615096 examples; cited from earlier work
[5] = Stability of hydroxy acids as solids and in aged solutions (spontaneous lactonization); format: physicochemical; settings: for stability as solids: purified crystalline hydroxy acids
Text: This was evidenced by the chemical shift of H-4 on the 4S lactone at δ5.40 ppm and that on the 4R lactone at δ5.65 ppm. The hydroxy acid that converted to the 2S, 4R lactone was thus identified as the 2S, 4R hydroxy acid (Example 1) and that which converted to the 2S, 4S lactone was identified as the 2S, 4S hydroxy acid (Example 2).

[6] = system: human ovarian carcinoma xenografts; settings: mice bearing human ovarian carcinoma xenografts; cited from earlier work

T3 sequence (P08254 100-477): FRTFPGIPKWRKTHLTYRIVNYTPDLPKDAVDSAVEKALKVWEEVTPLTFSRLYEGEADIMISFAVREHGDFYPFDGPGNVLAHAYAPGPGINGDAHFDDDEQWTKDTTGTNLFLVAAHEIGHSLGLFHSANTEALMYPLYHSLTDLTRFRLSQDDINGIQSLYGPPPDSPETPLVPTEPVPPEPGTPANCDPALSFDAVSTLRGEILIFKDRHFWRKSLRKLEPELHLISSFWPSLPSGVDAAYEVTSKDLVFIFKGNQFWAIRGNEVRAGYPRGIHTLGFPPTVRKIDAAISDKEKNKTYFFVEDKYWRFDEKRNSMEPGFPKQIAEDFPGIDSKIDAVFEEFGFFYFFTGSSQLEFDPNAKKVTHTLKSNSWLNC
T1 sequence (P14780 107-707 limits assumed): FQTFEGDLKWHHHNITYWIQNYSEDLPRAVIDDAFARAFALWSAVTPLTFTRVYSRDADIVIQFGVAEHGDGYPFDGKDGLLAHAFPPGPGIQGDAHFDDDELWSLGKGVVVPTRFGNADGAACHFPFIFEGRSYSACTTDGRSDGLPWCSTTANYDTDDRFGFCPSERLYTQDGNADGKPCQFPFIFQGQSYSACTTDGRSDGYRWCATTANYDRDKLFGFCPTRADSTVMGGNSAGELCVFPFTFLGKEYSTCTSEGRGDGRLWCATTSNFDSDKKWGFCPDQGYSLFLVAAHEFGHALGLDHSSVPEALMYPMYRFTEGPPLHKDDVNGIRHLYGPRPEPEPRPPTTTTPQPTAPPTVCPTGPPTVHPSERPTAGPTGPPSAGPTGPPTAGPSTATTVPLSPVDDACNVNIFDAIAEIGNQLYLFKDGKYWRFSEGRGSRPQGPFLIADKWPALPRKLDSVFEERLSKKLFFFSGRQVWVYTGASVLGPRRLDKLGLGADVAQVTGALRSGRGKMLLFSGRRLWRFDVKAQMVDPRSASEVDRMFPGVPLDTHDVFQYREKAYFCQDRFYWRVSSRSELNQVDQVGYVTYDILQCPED

Row | Compound | IC50 [1] | IC50 [2] | IC50 [3] | further results
1 | O=C(C[C@H](CSc1ccccc1)C(=O)O)c1ccc(-c2ccc(Cl)cc2)cc1 | 492 nM | 20 nM |  | 
2 | O=C(C[C@H](CSc1ccc(O)cc1)C(=O)O)c1ccc(-c2ccc(Cl)cc2)cc1 | 115 nM | 3 nM | 155 nM | 
3 | O=C(C[C@H](CCCc1ccccc1)C(=O)O)c1ccc(-c2ccc(Cl)cc2)cc1 | 209 nM | 34 nM | 108 nM | 
4 | CC(C)CC(CC(O)c1ccc(-c2ccc(Cl)cc2)cc1)C(=O)O (single isomer, unassigned) [Example 33] |  |  |  | potency as MMP-3 inhibitors relative to corresponding 4-biphenyl-4-oxobutyric acid derivatives [4]: less potent
5 | CC(C)CC(CC(O)c1ccc(-c2ccc(Cl)cc2)cc1)C(=O)O (single isomer, unassigned) [Example 34] |  |  |  | potency as MMP-3 inhibitors relative to corresponding 4-biphenyl-4-oxobutyric acid derivatives [4]: less potent
6 | O=C(O)[C@@H](CCCc1ccccc1)CC(O)c1ccc(-c2ccc(Cl)cc2)cc1 (single isomer, unassigned) [drawing 38] | 82 nM | 9.4 nM | 50 nM | 
7 | O=C(O)[C@@H](CCCc1ccccc1)CC(O)c1ccc(-c2ccc(Cl)cc2)cc1 (single isomer, unassigned) [drawing 39] | 369 nM | 46 nM | 1200 nM | 
8 | O=C(O)[C@@H](CSc1ccccc1)C[C@@H](O)c1ccc(-c2ccc(Cl)cc2)cc1 [Example 1, [2S, 4R]-4-[4-(4-chlorophenyl)phenyl]-4R-hydroxy-2-(phenylthiomethyl)butanoic acid] |  |  |  | spontaneous lactonization in aged solutions [5]: slowly showed one or other of the lactones as a result of spontaneous lactonization; stability as solids [5]: relatively stable as solids
9 | O=C(O)[C@@H](CSc1ccccc1)C[C@H](O)c1ccc(-c2ccc(Cl)cc2)cc1 [Example 2, [2S, 4S]-4-[4-(4-chlorophenyl)phenyl]-4-hydroxy-2-(phenylthiomethyl)butanoic acid] |  |  |  | spontaneous lactonization in aged solutions [5]: slowly showed one or other of the lactones as a result of spontaneous lactonization; stability as solids [5]: relatively stable as solids
10 | CNC(=O)[C@H](Cc1ccccc1)NC(=O)[C@H](CC(C)C)[C@H](CSc1cccs1)C(=O)NO [batimastat] |  |  |  | survival [6]: prolongs the survival
11 | O=C(O)[C@@H](CSc1ccccc1)C[C@@H](O)c1ccc(-c2ccc(Cl)cc2)cc1 [drawing 35] | 58 nM | 2.8 nM | 34 nM | 
12 | O=C(O)[C@@H](CSc1ccccc1)C[C@H](O)c1ccc(-c2ccc(Cl)cc2)cc1 [drawing 36] | 890 nM | 62 nM | 1550 nM | 
